IC50 and melting point data for ten molecules are collected here from patent publication US9593108B2, “Compounds and methods for antiviral treatment” (PTC Therapeutics, Inc., priority 2009, dated 2017).

As usually defined, the IC50 is the concentration that gives 50% inhibition. Read a high IC50 as lower potency. What is called melting point is the temperature, or range, at which the solid turns liquid.

Data set [1] relates to HCV replicon RNA (GenBank Accession No. AJ242654). As to the kind of experiment: HCV Replicon Assay (replicon RNA reduction and/or Fluc reporter signal). Particulars: Hepatitis C virus, 72 h, replicon-containing cells cultured with test compound for up to 3 days. The format is cell-based, Hepatitis C virus. Put shortly: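 Bicistronic replicon-containing cells cultured with compound for up to 3 days, with interferon as positive control. Inhibition quantified by replicon RNA reduction and/or Fluc reporter signal; IC50 values generally derived from replicon RNA reduction.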

Bounds are passed on as bounds.

`C[C@H](NS(=O)(=O)c1ccc(-c2c(C#N)c3cc(C(F)(F)F)cnc3n2C2CCCC2)nc1)C(F)(F)F` [Cpd 229, 6-[3-cyano-1-cyclopentyl-5-(trifluoromethyl)-1H-pyrrolo[2,3-b]pyridin-2-yl]-N-[(2S)-1,1,1-trifluoropropan-2-yl]pyridine-3-sulfonamide]: the melting point lay within 205 to 207 °C. In addition, the IC50 in data set [1] is below 0.5 µM.
In the case of `C[C@@H](NS(=O)(=O)c1ccc(-c2c(C#N)c3cc(C(F)(F)F)cnc3n2C2CCCC2)nc1)C(F)(F)F` [Cpd 230, 6-[3-cyano-1-cyclopentyl-5-(trifluoromethyl)-1H-pyrrolo[2,3-b]pyridin-2-yl]-N-[(2R)-1,1,1-trifluoropropan-2-yl]pyridine-3-sulfonamide], the melting point was in the range of 208 to 210 °C. Besides, in data set [1], the IC50 is below 0.5 µM.
`CC[C@H](NS(=O)(=O)c1ccc(-c2c(C#N)c3cc(OC)cnc3n2C2CCC2)nc1)C(F)(F)F` [Cpd 232, 6-(3-cyano-1-cyclobutyl-5-methoxy-1H-pyrrolo[2,3-b]pyridin-2-yl)-N-[(2S)-1,1,1-trifluorobutan-2-yl]pyridine-3-sulfonamide] returned a melting point of 186 to 191 °C. The IC50 in data set [1] was below 0.5 µM.
The molecule `CC[C@H](NS(=O)(=O)c1ccc(-c2c(C#N)c3cc(Cl)cnc3n2C2CCCC2)nc1)C(F)(F)F` [Cpd 233, 6-(5-chloro-3-cyano-1-cyclopentyl-1H-pyrrolo[2,3-b]pyridin-2-yl)-N-[(2S)-1,1,1-trifluorobutan-2-yl]pyridine-3-sulfonamide] yielded a melting point of 180 to 185 °C. The IC50 in data set [1] is below 0.5 µM.
In the case of `C[C@H](NS(=O)(=O)c1ccc(-c2c(C#N)c3ncc(Cl)cc3n2C2CCC2)nc1)C(F)(F)F` [Cpd 234, 6-(6-chloro-3-cyano-1-cyclobutyl-1H-pyrrolo[3,2-b]pyridin-2-yl)-N-[(2S)-1,1,1-trifluoropropan-2-yl]pyridine-3-sulfonamide], the melting point is 201 to 205 °C. In addition, in data set [1], the IC50 is below 0.5 µM.
For `C[C@H](NS(=O)(=O)c1ccc(-c2c(C#N)c3ncc(Cl)cc3n2C2CCC2)cc1)C(F)(F)F` [Cpd 235, 4-(6-chloro-3-cyano-1-cyclobutyl-1H-pyrrolo[3,2-b]pyridin-2-yl)-N-[(2S)-1,1,1-trifluoropropan-2-yl]benzenesulfonamide], in that order: 205 to 210 °C and 0.5 to 2 µM.
Consider `COc1cnc2c(c1)c(C#N)c(-c1ccc(S(=O)(=O)N[C@@H](C)C(F)(F)F)c[n+]1[O-])n2C1CCC1` [Cpd 236, 6-(3-cyano-1-cyclobutyl-5-methoxy-1H-pyrrolo[2,3-b]pyridin-2-yl)-N-[(2S)-1,1,1-trifluoropropan-2-yl]pyridine-3-sulfonamide 1-oxide], for which the melting point fell in the range of 155 to 157 °C. This molecule registered an IC50 in data set [1] of 2 to 5 µM.
The molecule `C[C@H](NS(=O)(=O)c1ccc(-c2c(C#N)c3cc(-c4cccs4)cnc3n2C2CCC2)nc1)C(F)(F)F` [Cpd 237, 6-[3-cyano-1-cyclobutyl-5-(thiophen-2-yl)-1H-pyrrolo[2,3-b]pyridin-2-yl]-N-[(2S)-1,1,1-trifluoropropan-2-yl]pyridine-3-sulfonamide] showed a melting point of 206 to 208 °C. Moreover, in data set [1], the IC50 lay within 2 to 5 µM.
Taken in the same sequence, the figures for `C[C@@H](NS(=O)(=O)c1ccc(-c2c(C#N)c3cc(-c4cccs4)cnc3n2C2CCC2)nc1)C(F)(F)F` [Cpd 238, 6-[3-cyano-1-cyclobutyl-5-(thiophen-2-yl)-1H-pyrrolo[2,3-b]pyridin-2-yl]-N-[(2R)-1,1,1-trifluoropropan-2-yl]pyridine-3-sulfonamide] were 198 to 199 °C and 2 to 5 µM.
On to `C[C@H](NS(=O)(=O)c1ccc(-c2c(C#N)c3cc(N4CCCC4)cnc3n2C2CCC2)nc1)C(F)(F)F` [Cpd 239, 6-[3-cyano-1-cyclobutyl-5-(pyrrolidin-1-yl)-1H-pyrrolo[2,3-b]pyridin-2-yl]-N-[(2S)-1,1,1-trifluoropropan-2-yl]pyridine-3-sulfonamide], for which the melting point was in the range of 207 to 209 °C. The molecule also showed a half-inhibitory concentration (IC50) in data set [1] of 0.5 to 2 µM.
